Measured values: PMC8968748 (Journal of medicinal chemistry, 2021)
Read-outs that look alike come from different tables or passages of the source.

Molecular target: IDH1 R132H (Homo sapiens, UniProt O75874, R132H)
Test: diaphorase/resazurin-coupled mIDH1 R132H enzyme assay
Assay type: biochemical
Settings: for IC50: average of N = 3, reported only where ≥75% inhibition at 38 μM; for mIDH1 inhibitory activity: R132H and R132C mIDH1, Table 2 is an image; for fold improvement in potency compared to analog 70: mIDH1 R132H, relative to 70

IDH1 R132H, sequence (O75874 whole entry R132H): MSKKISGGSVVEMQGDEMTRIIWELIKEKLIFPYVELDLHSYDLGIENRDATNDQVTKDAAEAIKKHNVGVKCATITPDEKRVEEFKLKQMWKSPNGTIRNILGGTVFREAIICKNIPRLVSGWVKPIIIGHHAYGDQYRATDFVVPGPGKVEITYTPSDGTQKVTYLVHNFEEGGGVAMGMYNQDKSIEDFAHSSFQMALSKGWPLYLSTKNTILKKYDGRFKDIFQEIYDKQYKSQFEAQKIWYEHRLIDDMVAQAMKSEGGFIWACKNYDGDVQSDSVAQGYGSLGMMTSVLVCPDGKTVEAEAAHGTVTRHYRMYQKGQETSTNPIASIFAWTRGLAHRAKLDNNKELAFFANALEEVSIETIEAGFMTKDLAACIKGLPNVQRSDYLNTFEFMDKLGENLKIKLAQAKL

Row | Molecule | IC50 (IDH1 R132H IC50(μM) ± SD) [µM] | mIDH1 inhibitory activity | other results
1 | 3-(4-(4-Chlorophenyl)thiazol-2-yl)-1-(2-ethyl-6-methylphenyl)-6-(2-methylprop-1-en-1-yl)-5-(piperazine-1-carbonyl)pyridin-2(1H)-one [Compound 115] | – | – | IC50 (read-out: IDH1 R132H IC50(μM) ± SD): 0.27 µM
2 | CCc1ccc(OC)cc1-n1c(C=C(C)C)c(C(=O)N2CCNCC2)cc(-c2nc(-c3ccc(Cl)cc3)cs2)c1=O (single isomer, unassigned) [(−)-118] | 0.42 ± 0.05 | – | –
3 | CCc1ccc(Cl)cc1-n1c(C=C(C)C)c(C(=O)N2CCNCC2)cc(-c2nc(-c3ccc(Cl)cc3)cs2)c1=O (single isomer, unassigned) [(−)-119] | 0.25 ± 0.04 | – | –
4 | COc1ccc(OC)c(-n2cccc(-c3nc(-c4ccc(Cl)cc4)cs3)c2=O)c1 [Compound 2, 3-(4-(4-Chlorophenyl)thiazol-2-yl)-1-(2,5-dimethoxyphenyl)pyridin-2(1H)-one] | – | completely inactive | –
5 | COc1ccc(OC)c(-n2c(C)ccc(-c3nc(-c4ccc(Cl)cc4)cs3)c2=O)c1 [Compound 3, 3-(4-(4-Chlorophenyl)thiazol-2-yl)-1-(2,5-dimethoxyphenyl)-6-methylpyridin-2(1H)-one] | – | completely inactive | –
6 | COc1ccc(OC)c(-n2c3c(cc(-c4nc(-c5ccccc5)cs4)c2=O)C(=O)CC(C)(C)C3)c1 [Compound 11, 1-(2,5-Dimethoxyphenyl)-7,7-dimethyl-3-(4-phenylthiazol-2-yl)-7,8-dihydroquinoline-2,5(1H,6H)-dione] | – | essentially equipotent to 1 against R132H mIDH1 | –
7 | COc1ccc(OC)c(-n2c3c(cc(-c4cccc(-c5ccc(Cl)cc5)c4)c2=O)C(=O)CC(C)(C)C3)c1 [Compound 23, 3-(4’-Chloro-[1,1’-biphenyl]-3-yl)-1-(2,5-dimethoxyphenyl)-7,7-dimethyl-7,8-dihydroquinoline-2,5(1H,6H)-dione] | – | complete loss in mIDH1 inhibitory activity | –
8 | COc1ccc(OC)c(-n2c3c(cc(-c4ccc(-c5ccccc5)cc4)c2=O)C(=O)CC(C)(C)C3)c1 [Compound 24, 3-([1,1’-Biphenyl]-4-yl)-1-(2,5-dimethoxyphenyl)-7,7-dimethyl-7,8-dihydroquinoline-2,5(1H,6H)-dione] | – | complete loss in mIDH1 inhibitory activity | –
9 | COc1ccc(OC)c(-n2c3c(cc(-c4cccc(-c5ccc(Cl)cc5)n4)c2=O)C(=O)CC(C)(C)C3)c1 [Compound 25, 3-(6-(4-Chlorophenyl)pyridin-2-yl)-1-(2,5-dimethoxyphenyl)-7,7-dimethyl-7,8-dihydroquinoline-2,5(1H,6H)-dione] | – | retained some activity | –
10 | CCc1cccc(CC)c1-n1c(C)c(C(=O)NCCO)cc(-c2nc(-c3ccc(Cl)cc3)cs2)c1=O [Compound 75, 5-(4-(4-Chlorophenyl)thiazol-2-yl)-1-(2,6-diethylphenyl)-N-(2-hydroxyethyl)-2-methyl-6-oxo-1,6-dihydropyridine-3-carboxamide] | – | – | fold improvement in potency compared to analog 70: 3 fold
11 | CCc1cccc(CC)c1-n1c(C)c(C(=O)NCCN)cc(-c2nc(-c3ccc(Cl)cc3)cs2)c1=O [Compound 78, N-(2-Aminoethyl)-5-(4-(4-chlorophenyl)thiazol-2-yl)-1-(2,6-diethylphenyl)-2-methyl-6-oxo-1,6-dihydropyridine-3-carboxamide] | – | – | fold improvement in potency compared to analog 70: 3 fold

The next lines start with results.

Row | IC50 (IDH1 R132H IC50(μM) ± SD) [µM] | Molecule | mIDH1 inhibitory activity | other results
12 | 0.51 ± 0.03 | CCOc1ccccc1-n1c2c(cc(-c3nc(-c4ccc(Cl)cc4)cs3)c1=O)C(=O)CC(C)(C)C2 [Compound 29, 3-(4-(4-Chlorophenyl)thiazol-2-yl)-1-(2-ethoxyphenyl)-7,7-dimethyl-7,8-dihydroquinoline-2,5(1H,6H)-dione] | – | –
13 | > 38 | COc1cc(C(=O)O)ccc1-n1c2c(cc(-c3nc(-c4ccc(Cl)cc4)cs3)c1=O)C(=O)CC(C)(C)C2 [Compound 57, 4-(3-(4-(4-Chlorophenyl)thiazol-2-yl)-7,7-dimethyl-2,5-dioxo-5,6,7,8-tetrahydroquinolin-1(2H)-yl)-3-methoxybenzoic acid] | – | –
